SMILES strings stand for the structures.

As a reminder, the melting point is the temperature of the solid-liquid transition. Molecule `CC1Cc2ccccc2CN(CO)C1=O` (stereo not given) came in with a melting point of 114 to 116 °C. Then `FC(F)(F)c1cccc(CSc2nnc(-c3ccnc4[nH]ccc34)o2)c1`, with 164 to 165 °C; and `OC1(c2ccc(C3OCCO3)cc2)CCCCC1`, with 95 to 97 °C.

For the molecule `O=c1c2ccccc2nc(-c2cc(-c3ccncc3)c(N3CCOCC3)s2)n1-c1ccccc1Cl`, the melting point lay within 179 to 180 °C. Next, `O=C1Cn2nccc2-c2ccccc2N1`: 236 to 240 °C. `Cc1c(C)c2c(c(C)c1NC(=O)c1ccc(C(=O)O)cc1)C(c1ccc(C(C)C)cc1)C(C)(C)O2` (stereo not given) registered a melting point of 258 to 261 °C. Then `O[C@@H]1CCN(Cc2nc(-c3ccc4c(c3)Nc3ccccc3S4)cs2)C1`, with 178 to 180 °C; and `Cc1cc2c(Oc3ccccc3Cl)cccc2[nH]1`, with 138 to 140 °C; and `CCN(CC)C(=O)Nc1ccc(S(=O)(=O)N2C(=O)C(N[C@@H](C)C(=O)OC)(c3ccccc3Cl)c3cc(Cl)ccc32)cc1` (stereo not given in full), with 204 °C. Molecule `CN1C(=S)NC(=O)C1=Cc1cc(C(C)(C)C)c(O)c(C(C)(C)C)c1` yielded a melting point of 242 to 244 °C. `COc1ccccc1NC(=O)c1ccc(CN2CCOCC2)cc1` came in with a melting point of 90 to 93.5 °C.

The molecule `O=CC1c2ccccc2C(C=O)c2cc(Cl)ccc21` (stereo not given) displayed a melting point of 113 to 115 °C. Next, `O=C(CBr)CCCCCCN1C(=O)c2ccccc2C1=O`: 83 to 86 °C; `CCCOc1ccccc1-c1[nH]c(=O)c(C#N)cc1C`: 213 °C; `CC(=O)NCC1CN(c2ccc(S(C)=O)c(F)c2)C(=O)O1` (stereo not given): 143 to 145 °C.

As to `CCC#CCOc1cc2c(cc1/C=C/c1ccc(C(=O)OCC)cc1)C(C)(C)CCC2(C)C`, the melting point lay within 80 to 82 °C. With `COc1ccc(Cc2cnc(N)nc2N)c(OC)c1O`, the melting point was 246 to 248 °C.

`O=C(Cc1ccccc1Nc1c(Cl)cccc1Cl)OCI` yielded a melting point of 66 °C. `O=[N+]([O-])c1cc(Cl)cc(C(c2cc(Cl)cc([N+](=O)[O-])c2O)C(F)(F)F)c1O` returned a melting point of 135 °C.

With `C=CCOc1ccc(C(C)(C)C)cc1C(C(N)=O)c1ccccc1` (stereo not given), the melting point is 172 to 174 °C. In turn, `CCCc1c(OCCCSc2ccc(-c3nnn[nH]3)cc2)ccc(C(C)=O)c1O` returned a melting point of 114 to 116 °C.

Molecule `O=C(Nc1ccccc1)c1cccc(Oc2cccc(C(F)(F)F)c2)n1` had a melting point of 92 to 93 °C. Next, `Cc1ccc(N2CCCN(c3ccnc4sc(C(N)=O)c(N)c34)CC2)nc1`: 205 to 208 °C; `Cc1nc(N2CCN(Cc3ccc(C(F)(F)F)cc3)C2=O)sc1-c1cc[nH]n1`: 212 to 213 °C. Next, `Cc1nc(-n2cc(-c3ccc(OCc4ccccc4)cc3)nn2)sc1C(=O)NCc1ccccc1`: 237 to 240 °C. The molecule `CCOC(=O)c1ccc(Cc2nc3n(-c4c(Cl)cc(Cl)cc4Cl)[nH]c(C(C)C)c-3c(=O)n2)cc1` displayed a melting point of 233 to 235 °C. `Nc1c(Cl)cc(C(=O)O)c2c1CCCO2` showed a melting point of 226 °C. Next, `O[C@H]1[C@H](O)CS[C@H]1n1cnc2c(Cl)ncnc21`: 192 to 193 °C; `CCOC1CC(c2ccccc2)Oc2c1ccc1c2nc(C)n1C` (stereo not given): 177 to 178 °C. Next, `COc1ccc(C2=NN(C3CCN(CC(N)=O)CC3)C(=O)CC2)cc1OC`: 180 to 182 °C; `CN1Cc2c(C#Cc3ccccc3)ncn2-c2cccc(Cl)c2C1=O`: 205 to 206 °C; `CCc1ccc2c(c1)OC1(O)c3cccc(N)c3C(=O)C21O` (stereo not given): 200 to 203 °C. In turn, `N#CC(C(=O)c1ccc(Cl)cc1)=C1CCC(C(=O)O)N1` (stereo not given) returned a melting point of 134 to 136 °C.

Take `CCc1c(C(=O)O)c(C(F)F)nc(C(F)(F)F)c1C(=O)O`: the melting point lay in the range of 237 to 239 °C. Then `COc1ccc2[nH]c(C3CCC(c4ccccc4)(N(C)C)CC3)c(C)c2c1` (stereo not given), with 156 to 163 °C.

Values taken from a melting point compilation (Tetko et al.; mined from patent text by program, amines drawn as free bases though some values may be those of a salt).
